We go through 11 compounds from US20230212180A1, “SUBSTITUTED PYRAZINE COMPOUND, PHARMACEUTICAL COMPOSITION COMPRISING SAME, AND USE THEREOF” (Sichuan Kelun-Biotech Biopharmaceutical Co., Ltd., priority 2020, published 2023).

Structures are written as SMILES.

The first assay has as its target T1, CYP1A2 (Homo sapiens, UniProt P05177).
T1 construct: purchased Promega
T1 sequence (P05177 1-516): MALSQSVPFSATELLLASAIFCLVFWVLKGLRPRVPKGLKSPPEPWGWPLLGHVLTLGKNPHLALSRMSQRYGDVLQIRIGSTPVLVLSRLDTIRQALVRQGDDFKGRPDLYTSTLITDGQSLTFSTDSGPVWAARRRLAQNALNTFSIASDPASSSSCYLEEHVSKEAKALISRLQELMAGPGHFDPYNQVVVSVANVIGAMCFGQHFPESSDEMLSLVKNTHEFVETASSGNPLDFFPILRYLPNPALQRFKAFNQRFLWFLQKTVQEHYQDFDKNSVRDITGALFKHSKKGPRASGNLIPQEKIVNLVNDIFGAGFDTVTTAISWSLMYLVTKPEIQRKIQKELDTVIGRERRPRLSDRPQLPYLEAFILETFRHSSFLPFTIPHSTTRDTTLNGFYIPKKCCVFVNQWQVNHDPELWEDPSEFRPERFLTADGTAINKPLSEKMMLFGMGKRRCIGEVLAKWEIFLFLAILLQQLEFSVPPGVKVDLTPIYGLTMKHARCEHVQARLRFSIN
Briefly: Biochemical assay for CYP enzyme inhibition, P450-Glo CYP1A2 Screening System. Type of assay: in vitro ADME.
Details: not given
As to the method:
Test Example 5: Biochemical Assay for CYP Enzyme (Cytochrome P450) Inhibition
P450-Glo™ CYP1A2 Screening System, (Promega);
BMG PHERAstar FS Luminescent.
The experiments were carried out separately according to the instructions of the kits. The steps were as follows:
3.1. Inhibition Against CYP1A2:
Test group: The test compounds at different concentrations were added into a microplate, and Luciferin-ME (100 μM), K3PO4 (100 mM), and CYP1A2 (0.01 μmol/μL) were added into each well, and pre-incubated at room temperature for 10 min. Thereafter, an NADPH regeneration system was added. The mixture was reacted at room temperature for 30 min. Finally, an equal volume of detection buffer was added and incubated at room temperature for 20 min, followed by chemiluminescence detection.
Negative control group: The experimental method for the negative control group was the same as that for the test group, except that the test compound was not added.
Blank control group: The experimental method for the blank control group was the same as that for the test group, except that the test compound was not added and that CYP1A2 was replaced with CYP1A2 Membrance (0.01 μmol/μL).
Percentage inhibition=(1−(the chemiluminescent signal value of the test compound group at a certain test concentration−the chemiluminescent signal value of the blank control group)/(the chemiluminescent signal value of the negative control group−the chemiluminescent signal value of the blank control group))×100%.
When the percentage inhibition was between 30% and 80%, a single value or a value range of the half maximal inhibitory concentration (IC50) of the compound against the CYP enzyme was estimated based on the following equation: IC50=X×(1−percentage inhibition)/percentage inhibition, wherein X was the test concentration of the compound.
As a reminder, the IC50 is the concentration that inhibits the measured activity by half. As for `C[C@@H]1OCC2(CCN(c3ncc(Sc4ccnc(N5CCCC5CC(N)=O)c4Cl)nc3CO)CC2)[C@@H]1N` (stereo partly drawn) [Example 19, 2-(1-(4-(5-((3S,4S)-4-amino-3-methyl-2-oxa-8-azaspiro[4.5]decan-8-yl)-6-(hydroxymethyl)pyrazin-2-ylthio)-3-chloropyridin-2-yl)pyrrolidin-2-yl)acetamide], the IC50 is > 10 µM.
`Cc1nc(N2CCC3(CC2)CO[C@@H](C)[C@H]3N)c(CO)nc1Sc1ccnc(N2CCCC2CO)c1Cl` (some centres unmarked) [Example 1]: the concentration for half-maximal inhibition (IC50) was > 10 µM.
Take `CC(O)C1CN(c2nccc(Sc3cnc(N4CCC5(CC4)CO[C@@H](C)[C@H]5N)c(CO)n3)c2Cl)C1` (stereo partly drawn) [Example 17, 1-(1-(4-(5-((3S,4S)-4-amino-3-methyl-2-oxa-8-azaspiro[4.5]decan-8-yl)-6-(hydroxymethyl)pyrazin-2-ylthio)-3-chloropyridin-2-yl)azetidin-3-yl)ethan-1-ol]: the IC50 is > 10 µM.
For `C[C@@H]1OCC2(CCN(c3ncc(Sc4ccnc(N5CC(CC#N)C5)c4Cl)nc3CO)CC2)[C@@H]1N` [Example 5, 2-(1-(4-(5-((3S,4S)-4-amino-3-methyl-2-oxa-8-azaspiro[4.5]decan-8-yl)-6-(hydroxymethyl)pyrazin-2-ylthio)-3-chloropyridin-2-yl)azetidin-3-yl)acetonitrile], the IC50 was > 10 µM.
Same read-out and setting: the value for `Cc1nc(N2CCC3(CC2)CO[C@@H](C)[C@H]3N)c(CO)nc1Sc1ccnc(N2CC(CS(C)(=O)=O)C2)c1Cl` [Example 25, (3-((3S,4S)-4-amino-3-methyl-2-oxa-8-azaspiro[4.5]decan-8-yl)-6-(3-chloro-2-(3-(methylsulfonylmethyl)azetidin-1-yl)pyridin-4-ylthio)-5-methylpyrazin-2-yl)methanol] was > 10 µM; that for `C[C@@H]1OCC2(CCN(c3cnc(Sc4ccnc(N5CC(C(C)(C)O)C5)c4Cl)cn3)CC2)[C@@H]1N` [Example 28, 2-(1-(4-(5-((3S,4S)-4-amino-3-methyl-2-oxa-8-azaspiro[4.5]decan-8-yl)pyrazin-2-ylthio)-3-chloropyridin-2-yl)azetidin-3-yl)propan-2-ol] was > 10 µM; that for `C[C@@H]1OCC2(CCN(c3ncc(Sc4ccnc(N5CC(CO)C5)c4Cl)nc3CO)CC2)[C@@H]1N` [Example 6, (3-((3S,4S)-4-amino-3-methyl-2-oxa-8-azaspiro[4.5]decan-8-yl)-6-(3-chloro-2-(3-(hydroxymethyl)azetidin-1-yl)pyridin-4-ylthio)pyrazin-2-yl)methanol] was > 10 µM.
Still for that read-out and setting: the value for `COCC1CN(c2nccc(Sc3cnc(N4CCC5(CC4)CO[C@@H](C)[C@H]5N)c(CO)n3)c2Cl)C1` [Example 21, (3-((3S,4S)-4-amino-3-methyl-2-oxa-8-azaspiro[4.5]decan-8-yl)-6-(3-chloro-2-(3-(methoxymethyl)azetidin-1-yl)pyridin-4-ylthio)pyrazin-2-yl)methanol] was > 10 µM.
The same measure, in the same setting: in the case of `C[C@@H]1OCC2(CCN(c3ncc(Sc4ccnc(NCC5(O)CC5)c4Cl)nc3CO)CC2)[C@@H]1N` [Example 15, 1-((4-(5-((3S,4S)-4-amino-3-methyl-2-oxa-8-azaspiro[4.5]decan-8-yl)-6-(hydroxymethyl)pyrazin-2-ylthio)-3-chloropyridin-2-ylamino)methyl)cyclopropan-1-ol] it was > 10 µM; in that of `C[C@@H]1OCC2(CCN(c3ncc(Sc4ccnc(N5CC(CS(C)(=O)=O)C5)c4Cl)nc3CO)CC2)[C@@H]1N` [Example 26, (3-((3S,4S)-4-amino-3-methyl-2-oxa-8-azaspiro[4.5]decan-8-yl)-6-(3-chloro-2-(3-(methylsulfonylmethyl)azetidin-1-yl)pyridin-4-ylthio)pyrazin-2-yl)methanol], > 10 µM.

The same assay, now with this note: estimated from percentage inhibition; read-out: IC50 (μM) CYP1A2.
With `CC(C)(O)C1CN(c2nccc(Sc3cnc(N4CCC5(CC4)Oc4ccccc4[C@H]5N)c(CO)n3)c2Cl)C1` [Example 22, (R)-2-(1-(4-(5-(3-amino-3H-spiro[benzofuran-2,4′-piperidin]-1′-yl)-6-(hydroxymethyl)pyrazin-2-ylthio)-3-chloropyridin-2-yl)azetidin-3-yl)propan-2-ol], the IC50 was > 10 µM.
